According to patent US20130005696A1, “BUFADIENOLIDE DERIVATIVES, PREPARING PROCESS THEREOF, COMPOSITION COMPRISING THE SAME AND THE USE THEREOF” (priority 2011, published 2013):
Read-outs that look alike come from different tables or passages of the source.

Key:
[1] = system: QGY-7703 human hepatic carcinoma cell line; test: In vitro antitumor activity assay (SRB), QGY7703; format: cell-based; conditions: QGY7703, 72 h, Table 3
From the text: (§1) HeLa human cervical carcinoma cell line, A-549 human non-small cell lung carcinoma cell line, NCI-H2228 human lung carcinoma cell line, NCI-H460 human lung carcinoma cell line, MDA-MB-231 human breast carcinoma cell line, MCF-7 human breast carcinoma cell line, Bel-7402 human hepatic carcinoma cell line, Hep3B human hepatic carcinoma cell line, QGY-7703 human hepatic carcinoma cell line, MV-4-11 human leukemic cell line, DAUDI human leukemic cell line, Jurkat human leukemic cell line, A498 renal carcinoma cell line, LoVo human colon carcinoma cell line, HCT1116 human colon carcinoma cell line, A431 human skin carcinoma cell line, PANC-1 human pancreatic carcinoma cell line, U87-MG human brain carcinoma cell line, SH-SY5Y human brain carcinoma cell line, RPMI-8226 human bone carcinoma cell line, HT1080 human fibrosarcoma cell line, PC-3 human prostatic carcinoma cell line, AGS human gastric adenocarcinoma cell line, and BGC-823 human gastric adenocarcinoma cell line were purchased from the Cell Bank of the Chinese Academy of Sciences.
(§2) The positive control is bufalin (formulated according to the common method), its purity is 98% or more by HPLC-UV and its structure is identified by NMR. The compounds to be tested and the positive control were diluted with normal saline with a concentration gradient of 10^−4 M, 10^−5 M, 10^−6 M, 10^−7 M and 10^−8 M.
(§3) According to cell growth rate, tumor cells in the log phase of growth were seeded into 96-well culture plates at 100 μL per well, and allowed to attach for 24 hours, followed by addition of a test compound or positive control at 10 μL per well. For each concentration, the test was carried out in triplicate wells. […] Finally, Tris solution was added at 150 μL per well, and the absorbance (A) was measured at a wavelength of 515 nm using a microplate reader. The growth inhibition on tumor cell proliferation was calculated according to the following equation:
(§4) Growth Inhibition (%)=[(Absorbance of negative control−Absorbance of blank)−(Absorbance of sample−Absorbance of blank)]/(Absorbance of negative control−Absorbance of blank)×100% […]

[2] = system: MV-4-11 human leukemic cell line; test: In vitro antitumor activity assay (SRB), MV-4-11; format: cell-based; conditions: MV-4-11, 72 h, Table 3
From the text: as §1, §2, §3, §4

[3] = system: A-549 human non-small cell lung carcinoma cell line; test: In vitro antitumor activity assay (SRB), A549; format: cell-based
From the text: as §1, §2
(§5) According to cell growth rate, tumor cells in the log phase of growth were seeded into 96-well culture plates at 100 μL per well, and allowed to attach for 24 hours, followed by addition of a test compound or positive control at 10 μL per well. For each concentration, the test was carried out in triplicate wells. Solvent control wells with addition of normal saline into cell culture and a blank well containing only cell culture medium but without cells for zeroing were also included. The tumor cells were incubated for 72 hours at 37° C. under 5% CO2, and then the culture medium (RPMI-1640) was removed. The cells were fixed with 10% cool TCA by incubating for 1 h at 4° C., washed with distilled water for 5 times, and dried naturally in the air. A solution of SRB (Sigma) (4 mg/mL) in 1% glacial acetic acid was added at 100 μL per well, and the cells were stained for 15 minutes at room temperature, and the supernatant was discarded. The plates were washed for 5 times with 1% acetic acid, and dried in air. Finally, Tris solution was added at 150 μL per well, and the absorbance (A) was measured at a wavelength of 515 nm using a microplate reader. The growth inhibition on tumor cell proliferation was calculated according to the following equation:
(§6) Growth Inhibition (%)=[(Absorbance of negative control−Absorbance of blank)−(Absorbance of sample−Absorbance of blank)]/(Absorbance of negative control−Absorbance of blank)×100%
(§7) Drug concentration: 10 μM, 1 μM, 0.1 μM, 10 nM, 1 nM, 0.1 nM.
(§8) IC50 was fitted by GraphPad Prism 4.

[4] = system: human non-small cell lung carcinoma A549 xenograft; test: In vivo therapeutic effect against A549 xenograft in nude mice; conditions: for inhibition of growth of human lung carcinoma A549 xenograft, in words: A549 xenograft in nude mice, bufalin at 1.6 mg/kg; for Inhibition Rate (%) / Tumor Weight(g) Mean ± SE: A549 xenograft, after 21 days
Procedure: This experiment is to evaluate the in vivo therapeutic effects of compounds bufalin, II1D-06.HCl, II1E-01.HCl and II1B-02.HCl against human-derived lung carcinoma A549 cell xenograft in nude mice.
Solvent control: 4% DMSO & 2% Tween-80 & 5% PEG-400 solution in normal saline
Compounds to be tested: bufalin, II1B-02.HCl, II1E-01.HCl, II1D-06.HCl
Formulating method: the compound was dissolved with DMSO into a stock solution, which was then diluted into an injection with a final DMSO concentration of 4%.
Positive control: Rapamycin Formulating method: it was formulated into an injection with a final DMSO concentration of 4%.
(§9) After the tumor size reaches about 200 mm^3, the mice bearing the tumor were grouped randomly into 8 groups according to the tumor size, including the groups of solvent control, positive control rapamycin 5 mg/kg, II1E-01.HCl 2 mg/kg, II1E-01.HCl 4 mg/kg, II1E-01.HCl 6 mg/kg, II1B-02.HCl 4 mg/kg, II1D-06.HCl 4 mg/kg, bufalin 1.6 mg/kg, wherein the dosage selection is based on that the maximum tolerable dosage is 1.6 mg/kg for bufalin and 6 mg/kg for II1E-01.HCl. Rapamycin was administered intravenously once a week (QW) and the other groups were administered intraperitoneally once every other day (QOD). The tumor was weighted after 21 days to calculate the inhibition rate. The equation for calculating inhibition rate (IR) is IR=(WC−WT)/WC×100%, wherein, WC represents the tumor weight of the control group, and WT represents the tumor weight of the treating group.

[5] = Maximum tolerable dosage (basis of dosage selection); conditions: in vivo
Procedure: as §9

[6] = system: A431 human skin carcinoma cell line; test: In vitro antitumor activity assay (SRB), A431; format: cell-based; conditions: A431, 72 h, Table 3
From the text: as §1, §2, §3, §4

[7] = system: PANC-1 human pancreatic carcinoma cell line; test: In vitro antitumor activity assay (SRB), PANC-1; format: cell-based; conditions: PANC-1, 72 h, Table 3
From the text: as §1, §2, §3, §4

[8] = system: BGC-823 human gastric adenocarcinoma cell line; test: In vitro antitumor activity assay (SRB), BGC-823; format: cell-based; conditions: BGC-823, 72 h, Table 3
From the text: as §1, §2, §3, §4

[9] = system: U87-MG human brain carcinoma cell line; test: In vitro antitumor activity assay (SRB), U87-MG; format: cell-based; conditions: 72 h, Table 3
From the text: as §1, §2, §3, §4

[10] = system: MCF-7 human breast carcinoma cell line; test: In vitro antitumor activity assay (SRB), MCF-7; format: cell-based
From the text: as §1, §2, §5, §6, §7, §8

[11] = system: DAUDI human leukemic cell line; test: In vitro antitumor activity assay (SRB), Daudi; format: cell-based; conditions: 72 h, Table 3
From the text: as §1, §2, §3, §4

[12] = system: PC-3 human prostatic carcinoma cell line; test: In vitro antitumor activity assay (SRB), PC-3; format: cell-based
From the text: as §1, §2, §5, §6, §7, §8

SMILES: C[C@]12CC[C@H](OC(=O)NC3CCNCC3)C[C@H]1CC[C@@H]1[C@@H]2CC[C@]2(C)[C@@H](c3ccc(=O)oc3)CC[C@]12O.Cl [II1E-01•HCl]
- IC50 [1]: 1.72 ± 0.08 nM
- IC50 [2]: 0.64 ± 0.11 nM
- IC50 ([3]; A549, 72 h, Table 3, read-out: IC50 (72 h), A549): 0.4 ± 0.22 nM
- inhibition of growth of human lung carcinoma A549 xenograft, in words [4]: significantly inhibit the growth
- Inhibition Rate (%) ([4]; 2 mg/kg ip QOD): 32.43%
- Tumor Weight(g) Mean ± SE ([4]; 2 mg/kg ip QOD): 1.1375 ± 0.1044 g
- Inhibition Rate (%) ([4]; 4 mg/kg ip QOD): 70.57%
- Tumor Weight(g) Mean ± SE ([4]; 4 mg/kg ip QOD): 0.4953 ± 0.0301 g
- Inhibition Rate (%) ([4]; 6 mg/kg ip QOD): 87.70%
- Tumor Weight(g) Mean ± SE ([4]; 6 mg/kg ip QOD): 0.2070 ± 0.0193 g
- maximum tolerable dosage [5]: 6 mg/kg
- IC50 [6]: 3.31 ± 0.09 nM
- IC50 [7]: 0.57 ± 0.06 nM
- IC50 [8]: 0.56 ± 0.07 nM
- IC50 [9]: 1.98 ± 0.3 nM
- IC50 ([10]; MCF-7, 72 h, Table 3, read-out: IC50 (72 h), MCF-7): 10.8 ± 1.08 nM
- IC50 [11]: 2.34 ± 0.22 nM
- IC50 ([12]; PC-3, 72 h, Table 3, read-out: IC50 (72 h), PC-3): 0.3 ± 0.08 nM

SMILES: C[C@]12CC[C@H](O)C[C@H]1CC[C@@H]1[C@@H]2CC[C@]2(C)[C@@H](c3ccc(=O)oc3)CC[C@]12O [bufalin, reference compound]
- IC50 ([1]; Homo sapiens, QGY-7703): 12.8 ± 0.47 nM
- IC50 ([2]; Homo sapiens, MV4-11): 6.26 ± 2.22 nM
- IC50 ([3]; Homo sapiens, A549, 72 h, Table 3, read-out: IC50 (72 h), A549): 8.74 ± 2.52 nM
- IC50 ([3]; Homo sapiens, A549, Table 2, read-out: IC50, inhibition of cell proliferation, A549): 6.53 ± 1.64 nM
- inhibition of growth of human lung carcinoma A549 xenograft, in words [4]: did not express strong inhibitory activity
- Inhibition Rate (%) ([4]; 1.6 mg/kg ip QOD): 8.99%
- Tumor Weight(g) Mean ± SE ([4]; 1.6 mg/kg ip QOD): 1.5320 ± 0.0624 g
- maximum tolerable dosage ([5]; mouse): 1.6 mg/kg
- IC50 ([6]; Homo sapiens, A-431): 26.6 ± 5.35 nM
- IC50 ([7]; Homo sapiens): 9.88 ± 0.27 nM
- IC50 ([8]; Homo sapiens): 9.06 ± 0.37 nM
- IC50 ([9]; Homo sapiens, U-87 MG): 13 ± 1.74 nM
- IC50 ([10]; Homo sapiens, MCF7, MCF-7, 72 h, Table 3, read-out: IC50 (72 h), MCF-7): 45.9 ± 5.18 nM
- IC50 ([10]; Homo sapiens, MCF7, MCF-7, Table 2, read-out: IC50, inhibition of cell proliferation, MCF-7): 28.8 ± 3.71 nM
- IC50 ([11]; Homo sapiens): 12.6 ± 0.76 nM
- IC50 ([12]; Homo sapiens, Prostatic carcinoma cell, PC-3, 72 h, Table 3, read-out: IC50 (72 h), PC-3): 5 ± 0.45 nM
- IC50 ([12]; Homo sapiens, Prostatic carcinoma cell, PC-3, Table 2, read-out: IC50, inhibition of cell proliferation, PC-3): 17.3 ± 2.76 nM
